Tests used:
Alg44PilZ = molecular target: T1, Alg44PilZ (Pseudomonas aeruginosa, UniProt Q9HY69); conditions: estimated by filter binding, previous studies; cited from earlier work
T1 construct: Previous studies of the dissociation rate of cdiGMP from Alg44PilZ

Vc2* riboswitch RNA = assay: Electrophoretic mobility shift assay (EMSA) of cdiGMP binding to Vc2* RNA; conditions: read-out: Kd (apparent affinity)
Text: We have shown that protein interaction with DNA can be detected by DRaCALA. We wondered if the principle of DRaCALA would also apply to ribonucleic acids. In particular, can the DRaCALA technology be used to detect the interaction of riboswitches with their small molecule ligands. One example of such an interaction that has been of recent interest is the cdiGMP responsive Vc2 riboswitch identified in bacteria. To study such an interaction with DRaCALA, one of the binding partners must be immobilized. […] The biotinylated riboswitch was sequestered by streptavidin, allowing the nucleic acid to take the place of protein as the immobile partner in the binding assay. Vc2* was tested directly for sequestration of cdiGMP and also biotinylated and tested for binding to cdiGMP in the presence or absence of streptavidin. The 4 nM radiolabelled cdiGMP was mobile alone and in the presence of the Vc2* or biotinylated Vc2* RNA (FIG. 19A, lanes 1-3). […] Biotinylated Vc2* RNA and bound cdiGMP was immobilized by streptavidin as expected (lane 6). […]
Gel shift assays were performed using 8% acrylamide gels with 100 mM Tris/HEPES, pH=7.5, 10 mM MgCl2, and 0.1 mM EDTA in the gel and running buffer. […] Gels were imaged with a phosphorimager and fraction bound quantified with Fuji Image Guage software. […]

HisMBP-Alg44PilZ = molecular target: T2, HisMBP-Alg44PilZ (Pseudomonas aeruginosa, UniProt Q9HY69); assay: DRaCALA competition of cold nucleotides with 32P-cdiGMP binding to HisMBP-Alg44PilZ; set-up: species or system P. aeruginosa; conditions: 4 nM 32P-cdiGMP
T2 construct: His-MBP-Alg44PilZ was varied from 100 μM to 6 nM; made in house; host or cells: E. coli BL21(DE3)
T2 sequence (Q9HY69 16-116): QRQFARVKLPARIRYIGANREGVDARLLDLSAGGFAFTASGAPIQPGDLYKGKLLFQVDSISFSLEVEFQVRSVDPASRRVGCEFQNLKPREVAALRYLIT
Description: FIG. 2. Detection of specific protein-ligand interactions by DRaCALA. (A) DRaCALA images of interactions between purified proteins (20 μM) incubated with 500 nM ^14C-cAMP, 4 nM ^32P-ATP, or 4 nM ^32P-cdiGMP. Protein-ligand mixtures were spotted on nitrocellulose and allowed to dry prior to imaging using a Fuji FLA7100 phosphorimager. Cognate protein-nucleotide combinations are indicated by arrowheads. MBP was used as a negative control. (B) DRaCALA images of competition assays assessing the ability of 1 mM of the indicated cold nucleotides to compete with binding interactions between 4 nM ^32P-cdiGMP and 2.5 μM HisMBP-Alg44PilZ. (C) Graph of fraction bound for each sample in […] with averages indicated by a horizontal bar. NC indicates no competitor. P values were determined by a Student's t-test for significant differences when compared to the no-competitor (NC) control for three independent experiments. For total intensity of each DRaCALA spot in FIGS. 2A and 2B, see Tables 1 and 2, respectively.
Radiolabeled ligands were incubated with each of the proteins and the mixtures were spotted on nitrocellulose. After spreading by capillary action, membranes were dried and quantitated by phosphorimager. […] Each of the radiolabel signals from MBP mixtures was distributed by capillary action (FIG. 2A). […] The specificity of Alg44PilZ binding to cdiGMP was further tested by competition with excess unlabeled nucleotides (400-fold molar excess relative to the Alg44PilZ protein). Alg44PilZ binding to ^32P-cdiGMP was abolished by cdiGMP, but not by cGMP, GMP, GDP, GTP, ATP, CTP or UTP as was previously described (FIG. 2B). The FB for cdiGMP was 0.31±0.07, which was reversed by competition with unlabeled cdiGMP to the background level of 0.04±0.01 (FIG. 2C).
Protein or whole cell lysates in 1× cdiGMP binding buffer (20 μl) was mixed with 4 nM of radiolabeled nucleotide and allowed to incubate for 10 minutes at room temperature. Radiolabeled nucleotide was competed away by cold nucleotides in concentrations and for times indicated. Purified proteins were tested in technical replicates. Whole cell lysates in FIG. 4 and FIG. 12 were tested in biological triplicates. Whole cell lysates in FIG. 5 were tested in technical replicates. These mixtures were pipetted (2.5-5 μl) onto dry, untreated nitrocellulose (GE Healthcare) in triplicate and allowed to dry completely before quantification. An FLA7100 Fujifilm Life Science Phosphorimager was used to detect luminescence following a 5-minute exposure of blotted nitrocellulose to phosphorimager film. Data was quantified using Fujifilm Multi Gauge software v3.0.

T1 sequence (Q9HY69 16-116): as above

Q: Which results are given for `Nc1nc2c(ncn2[C@@H]2O[C@@H]3CO[P@](=O)(O)O[C@H]4[C@@H](O)[C@H](n5cnc6c(=O)[nH]c(N)nc65)O[C@@H]4CO[P@](=O)(O)O[C@H]3[C@H]2O)c(=O)[nH]1` [cdiGMP, cyclic-di-GMP]?
A: half-life of the complex (Alg44PilZ): 5 min; Kd (Vc2* riboswitch RNA): 9.8 nM; fraction bound (FB) after competition with unlabeled cdiGMP (HisMBP-Alg44PilZ; 1 mM unlabeled cdiGMP): 0.04±0.01; fraction bound (FB) (HisMBP-Alg44PilZ; no competitor): 0.31±0.07; Alg44PilZ binding to 32P-cdiGMP abolished by unlabeled nucleotide (HisMBP-Alg44PilZ; 1 mM cold nucleotide (400-fold molar excess over protein)): abolished

From patent US20130337579A1, “Methods for Determining Protein Ligand Binding” (UNIVERSITY OF MARYLAND, COLLEGE PARK, priority 2010, published 2013)
